US20240116985A1, “STAPLED PEPTIDES AND METHODS THEREOF” (priority 2020, published 2024)
pIC50: −log10 of the molar value.

Columns and labels:
[1] = biological target: T1, beta-catenin/TCF4 engagement (Homo sapiens, UniProt P35222); experiment: Nano-BRET target engagement assay (B-cat-Halo & TCF4-Luc in HEK293 cells); format: cell-based; settings: absolute IC50; read-out: NanoBRET Abs IC50
T1 construct: expressed in transfected cells; host or cells: HEK293
T1 sequence (P35222 1-781): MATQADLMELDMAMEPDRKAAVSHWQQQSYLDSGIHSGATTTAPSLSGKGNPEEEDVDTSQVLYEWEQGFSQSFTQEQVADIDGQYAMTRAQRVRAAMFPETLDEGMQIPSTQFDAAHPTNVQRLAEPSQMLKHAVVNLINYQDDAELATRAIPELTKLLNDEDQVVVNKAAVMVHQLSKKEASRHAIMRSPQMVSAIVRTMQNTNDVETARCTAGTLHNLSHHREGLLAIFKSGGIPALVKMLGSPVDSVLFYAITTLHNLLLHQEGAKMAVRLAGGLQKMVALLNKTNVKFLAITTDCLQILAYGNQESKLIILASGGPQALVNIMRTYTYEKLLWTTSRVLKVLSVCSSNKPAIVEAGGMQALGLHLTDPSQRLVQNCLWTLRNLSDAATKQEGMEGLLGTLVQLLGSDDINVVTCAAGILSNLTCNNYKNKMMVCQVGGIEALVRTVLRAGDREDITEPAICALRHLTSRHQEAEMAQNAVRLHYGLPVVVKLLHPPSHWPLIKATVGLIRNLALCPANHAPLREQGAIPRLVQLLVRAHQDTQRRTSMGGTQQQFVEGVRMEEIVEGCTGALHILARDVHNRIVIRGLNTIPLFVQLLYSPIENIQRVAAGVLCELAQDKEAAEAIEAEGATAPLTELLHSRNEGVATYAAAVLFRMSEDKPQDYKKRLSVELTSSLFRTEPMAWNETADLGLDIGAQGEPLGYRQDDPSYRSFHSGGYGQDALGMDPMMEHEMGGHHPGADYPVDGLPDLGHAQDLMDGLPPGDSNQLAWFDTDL

[2] = biological target: T2, full-length beta-Catenin (Uniprot ID P35222) (Homo sapiens, UniProt P35222); experiment: Fluorescence polarization IC50 (beta-catenin / 5FAM-TCF4 10-53 competition); format: binding; settings: fluorescence polarization; read-out: beta-Catenin FP IC50
T2 construct: 10 nM full-length beta-Catenin (Uniprot ID P35222)
T2 sequence (P35222 1-781): T1 sequence (P35222 1-781)

pIC50 [1] | pIC50 [2] | SMILES
4.85 | 7.05 | CC(=O)N1CCC[C@]12CCCCCCC1(CCCCCCCCOC(=O)N3CC[C@@](C(=O)N[C@@H](Cc4ccsc4)C(=O)N[C@@H](Cc4csc5ccccc45)C(=O)N[C@@H](CCC(N)=O)C(N)=O)(C3)NC(=O)[C@H](CC(C)C)NC(=O)[C@H](Cc3ccccc3)NC(=O)[C@H](C)NC(=O)[C@H](C)NC(=O)[C@H](CC(=O)O)NC(=O)[C@H](CC(=O)O)NC1=O)NC(=O)[C@H](CC(C)(C)C)NC(=O)[C@H](CC(=O)O)NC2=O (stereo partly drawn) [I-1808, Ac-PL3-Asp-Npg-B5-Asp-Asp-Ala-Ala-Phe-Leu-PyrS2-3Thi-BztA-Gln-NH2]
< 4.70 | 7.59 | CC(=O)N1CCC[C@]12CC=CCCCC1(CCCC=CCCOC(=O)N3CC[C@@](C(=O)N[C@@H](Cc4ccsc4)C(=O)N[C@@H](Cc4csc5ccccc45)C(=O)N[C@@H](CCC(N)=O)C(N)=O)(C3)NC(=O)[C@H](CC(N)=O)NC(=O)[C@H](Cc3ccccc3)NC(=O)[C@H](C)NC(=O)[C@H](C)NC(=O)[C@H](CC(=O)O)NC(=O)[C@H](CC(=O)O)NC1=O)NC(=O)[C@H](CC(C)(C)C)NC(=O)[C@H](CC(=O)O)NC2=O (stereo partly drawn) [I-1813, Ac-PL3-Asp-Npg-B5-Asp-Asp-Ala-Ala-Phe-Asn-PyrS1-3Thi-BztA-Gln-NH2]
< 4.70 | 7.34 | CC(=O)N1CCC[C@]12CC=CCCCC1(CCCC=CCCOC(=O)N3CC[C@@](C(=O)N[C@@H](Cc4ccsc4)C(=O)N[C@@H](Cc4csc5ccccc45)C(=O)N[C@@H](CCC(N)=O)C(N)=O)(C3)NC(=O)[C@H](CC(C)C)NC(=O)[C@H](Cc3ccccc3)NC(=O)[C@H](C)NC(=O)[C@H](C)NC(=O)[C@H](CC(=O)O)NC(=O)[C@H](CC(=O)O)NC1=O)NC(=O)[C@H](CC(C)(C)C)NC(=O)[C@H](CC(=O)O)NC2=O (stereo partly drawn) [I-1815, Ac-PL3-Asp-Npg-B5-Asp-Asp-Ala-Ala-Phe-Leu-PyrS1-3Thi-BztA-Gln-NH2]
< 4.70 | 6.63 | CC(=O)N1CCC[C@]12CC=CCCCC1(CCCC=CCOC(=O)N3CC[C@@](C(=O)N[C@@H](Cc4ccsc4)C(=O)N[C@@H](Cc4csc5ccccc45)C(=O)N[C@@H](CCC(N)=O)C(N)=O)(C3)NC(=O)[C@H](CC(C)C)NC(=O)[C@H](Cc3ccccc3)NC(=O)[C@H](C)NC(=O)[C@H](C)NC(=O)[C@H](CC(=O)O)NC(=O)[C@H](CC(=O)O)NC1=O)NC(=O)[C@H](CC(C)(C)C)NC(=O)[C@H](CC(=O)O)NC2=O (stereo partly drawn) [I-1818, Ac-PL3-Asp-Npg-B5-Asp-Asp-Ala-Ala-Phe-Leu-PyrS-3Thi-BztA-Gln-NH2]
< 4.70 | 7.17 | CC(=O)N1CCC[C@]12CCCCCCC1(CCCCCCCOC(=O)N3CC[C@@](C(=O)N[C@@H](Cc4ccsc4)C(=O)N[C@@H](Cc4csc5ccccc45)C(=O)N[C@@H](CCC(N)=O)C(N)=O)(C3)NC(=O)[C@H](CC(N)=O)NC(=O)[C@H](Cc3ccccc3)NC(=O)[C@H](C)NC(=O)[C@H](C)NC(=O)[C@H](CC(=O)O)NC(=O)[C@H](CC(=O)O)NC1=O)NC(=O)[C@H](CC(C)(C)C)NC(=O)[C@H](CC(=O)O)NC2=O (stereo partly drawn) [I-1821, Ac-PL3-Asp-Npg-B5-Asp-Asp-Ala-Ala-Phe-Asn-PyrS1-3Thi-BztA-Gln-NH2]

SMILES | pIC50 [1] | pIC50 [2]
CC(=O)N1CCC[C@]12CC=CCCCC1(CCCC=CCCCOC(=O)N3CC[C@@](C(=O)N[C@@H](Cc4ccsc4)C(=O)N[C@@H](Cc4csc5ccccc45)C(=O)N[C@@H](CCC(=O)N4CC[C@@H](N(C)C)C4)C(N)=O)(C3)NC(=O)[C@H](CC(C)C)NC(=O)[C@H](Cc3ccccc3)NC(=O)[C@H](C)NC(=O)[C@H](C)NC(=O)[C@H](CN(CC(=O)O)CC(F)(F)F)NC(=O)[C@H](CC(=O)O)NC1=O)NC(=O)[C@H](CC(C)(C)C)NC(=O)[C@H](CC(=O)O)NC2=O (stereo partly drawn) [I-1805, Ac-PL3-Asp-Npg-B5-Asp-TfeGA-Ala-Ala-Phe-Leu-PyrS2-3Thi-BztA-[RDMAPyr]GlnR-NH2] | 5.03 | 8.22
